Laboratory results taken from US8084502B2, “Use of agmatine for protection of retinal ganglion cells” (priority 2007, dated 2011).

Tests used:
Assay type in all cases: cell-based, rat
[1] = tested on: RGC-5; test: LDH assay, hypoxia-induced cell death; details: for LDH release: relative to maximum LDH release = 100; for concentration at which cell death was reduced significantly (LDH assay): preliminary studies
Protocol: The RGC-5 cell line, which is a RGC line developed from post-natal Sprague-Dawley rats, was grown in modified Dulbecco's Modified Eagle's Medium (DMEM; Gibco) supplemented with 10% of heat inactivated fetal bovine serum (Gibco) and 100 U/mL of penicillin and 100 μg/mL of streptomycin (Gibco). The cells were passaged every 2 to 3 days, and the cultures incubated at 37° C. in 5% of CO2 and air. […] For all experiments, cells were used at an 80% confluence.
Cultures were transferred into a closed hypoxic chamber (Form a Scientific Co.) in which oxygen level (5% of O2, 5% of CO2, 90% of N2) and temperature (37° C.) were controlled. After washing twice with deoxygenated serum-free DMEM, cells were maintained in the hypoxic chamber. Control cells were not exposed to hypoxia. Agmatine or BDNF were added to the culture medium at the start of injury as indicated.
Cell viability was quantified by measurement of LDH released by injured cells after hypoxic or normoxic culture for 12, 24, and 48 hours. LDH release is expressed as a value relative to the value of 100, which represents the maximum LDH release that occurred after freezing of each culture at −70° C. overnight and rapid thawing, which induces nearly complete cell damage. All experiments were performed in at least quadruplicate and repeated at least eight times using cell cultures derived from different platings. The preliminary studies with the LDH assay tested agmatine concentrations from 10 μM to 1 mM and BDNF concentrations from 5 ng/mL to 100 ng/mL.

[2] = tested on: RGC-5; test: Annexin-V assay (flow cytometry), hypoxia-induced apoptosis; details: agmatine 100 μM or BDNF 10 ng/ml
Protocol: The RGC-5 cell line, which is a RGC line developed from post-natal Sprague-Dawley rats, was grown in modified Dulbecco's Modified Eagle's Medium (DMEM; Gibco) supplemented with 10% of heat inactivated fetal bovine serum (Gibco) and 100 U/mL of penicillin and 100 μg/mL of streptomycin (Gibco). The cells were passaged every 2 to 3 days, and the cultures incubated at 37° C. in 5% of CO2 and air. […] For all experiments, cells were used at an 80% confluence. Cultures were transferred into a closed hypoxic chamber (Form a Scientific Co.) in which oxygen level (5% of O2, 5% of CO2, 90% of N2) and temperature (37° C.) were controlled. After washing twice with deoxygenated serum-free DMEM, cells were maintained in the hypoxic chamber. Control cells were not exposed to hypoxia. Agmatine or BDNF were added to the culture medium at the start of injury as indicated. The percentage of cells actively undergoing apoptosis was determined by flow cytometry using the Annexin V-FITC Apoptosis Detection Kit (BD Biosciences, Cat no. 556547) according to the manufacturer's instructions. Briefly, cells were harvested and resuspended in binding buffer (10^6 cells/mL). 10^5 cells were mixed with 5 μL of annexin V-FITC and 5 μL of PI. After incubating at room temperature for 15 minutes in the dark, analysis was performed by flow cytometry.

[3] = tested on: p38; test: Western blot, phospho-p38 in hypoxic RGC-5; details: agmatine 100 μM, BDNF 10 ng/mL
Protocol: (§1) The RGC-5 cell line, which is a RGC line developed from post-natal Sprague-Dawley rats, was grown in modified Dulbecco's Modified Eagle's Medium (DMEM; Gibco) supplemented with 10% of heat inactivated fetal bovine serum (Gibco) and 100 U/mL of penicillin and 100 μg/mL of streptomycin (Gibco). The cells were passaged every 2 to 3 days, and the cultures incubated at 37° C. in 5% of CO2 and air. […] For all experiments, cells were used at an 80% confluence. Cultures were transferred into a closed hypoxic chamber (Form a Scientific Co.) in which oxygen level (5% of O2, 5% of CO2, 90% of N2) and temperature (37° C.) were controlled. […] The protein concentrations in the resultant supernatants were measured with the Bradford reagent, and equal amounts of protein (40 μg) were boiled in Laemmli sample buffer, followed by being resolved by 10 or 15% SDS-PAGE. The proteins were transferred to polyvinylidene fluoride membranes (Immobilon; Millipore, Billerica, Mass.) and then probed overnight with antibodies against JNK, ERK p44/42, p38, NF-κB p65, phospho-JNK, phospho-ERK p44/42, phospho-p38, phospho-NF-κB, (3-actin and histone 3 as indicated (diluted 1:1000). The immunoreactive bands were detected with horseradish peroxidase-conjugated secondary antibodies and visualized by enhanced chemiluminescence.

[4] = tested on: RGC-5; test: Hoechst 33342 and PI staining after hypoxia; details: hypoxia 48 hours; 100 μM of agmatine or 10 ng/mL of BDNF
Protocol: The RGC-5 cell line, which is a RGC line developed from post-natal Sprague-Dawley rats, was grown in modified Dulbecco's Modified Eagle's Medium (DMEM; Gibco) supplemented with 10% of heat inactivated fetal bovine serum (Gibco) and 100 U/mL of penicillin and 100 μg/mL of streptomycin (Gibco). The cells were passaged every 2 to 3 days, and the cultures incubated at 37° C. in 5% of CO2 and air. […] For all experiments, cells were used at an 80% confluence. Cultures were transferred into a closed hypoxic chamber (Form a Scientific Co.) in which oxygen level (5% of O2, 5% of CO2, 90% of N2) and temperature (37° C.) were controlled. After washing twice with deoxygenated serum-free DMEM, cells were maintained in the hypoxic chamber. Control cells were not exposed to hypoxia. Agmatine or BDNF were added to the culture medium at the start of injury as indicated. Apoptotic or necrotic cell death was characterized by the use of Hoechst 33342 and PI double staining. Cells were stained with 10 μg/mL of Hoechst 33342 and 10 μg/mL of PI at 37° C. for 30 minutes. After washing twice with phosphate buffered saline (PBS), cells were imaged with a digital camera attached to a fluorescence microscope.

[5] = tested on: ERK; test: Western blot, phospho-ERK in hypoxic RGC-5; details: agmatine 100 μM, BDNF 10 ng/mL
Protocol: as §1

[6] = tested on: JNK; test: Western blot, phospho-JNK in hypoxic RGC-5; details: agmatine 100 μM, BDNF 10 ng/mL
Protocol: as §1

Compound	suppression of LDH release compared with BDNF ([1]; hypoxia 48 hours, 100 μM of agmatine vs 10 ng/mL BDNF, P<0.001)	LDH release ([1]; hypoxia 48 hours, 100 μM of agmatine) [%]	LDH release ([1]; hypoxia 48 hours, 500 μM of agmatine) [%]	concentration at which cell death was reduced significantly (LDH assay) ([1]; tested 10 μM to 1 mM) [µM]	proportion of apoptotic cells ([2]; hypoxia 12 hours)	proportion of apoptotic cells ([2]; hypoxia 24 hours)	expression of phospho-p38 [3]	RGC loss (Hoechst-positive / PI-positive cells) [4]	expression of phospho-ERKs [5]	hypoxia-induced expression of phospho-JNKs [6]	LDH release ([1]; hypoxia 48 hours, 10 ng/mL of BDNF) [%]	LDH release ([1]; hypoxia 48 hours, 50 ng/mL of BDNF) [%]	LDH release ([1]; hypoxia 48 hours, 100 ng/mL of BDNF) [%]	concentration at which cell death was reduced significantly (LDH assay) ([1]; tested 5 ng/mL to 100 ng/mL) [ng/mL]
N=C(N)NCCCCN [agmatine]	more effective in suppressing LDH release than 10 ng/mL BDNF	25.60	27.09	≥ 100	no significant difference	significant decrease in apoptotic cells	had no effect	RGC loss was prevented	did not significantly affect	significantly suppressed				
BDNF: recombinant human BDNF (R&D System), well-known protective neurotrophin for RGCs, used as comparator					no significant difference	significant decrease in apoptotic cells	only blocked the expression of phospho-p38 at 6 hours	RGC loss was prevented	completely blocked the expression of phospho-ERKs after exposure to hypoxia for 3 and 6 hours, but had no effect thereafter	not	30.10	33.67	36.06	≥ 10
